# Several values for one entry are separate records, joined by “and”; a condition that tells them apart may be missing. Equal entries are not always repeated.
# Tested on: LG0567-F671-PDC multi-cell spheroid viability
# Experiment: Anticancer human tumor LG0567-F671-PDC patient-derived lung adenocarcinoma cell line growth inhibition [IpAb]
# Conditions: for viability, T/C: stronger effect = lower value
# Method in brief: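 Combinations with ipatasertib or abemaciclib were tested on tumour spheroids holding HUVEC (25%) and MSC (15%) alongside 60% malignant cells. Top concentration was at or near clinical Cmax (10 microM if undefined), descending in half-log steps.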
# [1] = curve of first compound, second compound 0.01 µM
# [2] = curve of first compound, second compound 0.0316 µM
# [3] = curve of first compound, second compound 0.1 µM
# [4] = curve of first compound, second compound 0.316 µM
# [5] = curve of first compound, second compound 1 µM
# [6] = second compound 0.1 µM, first compound 0.0316 µM
# [7] = second compound 0.1 µM, first compound 0.1 µM
# [8] = second compound 0.1 µM, first compound 0.316 µM
# [9] = second compound 0.1 µM, first compound 1 µM
# [10] = second compound 0.316 µM, first compound 0.0316 µM
# [11] = second compound 0.316 µM, first compound 0.1 µM
# [12] = second compound 0.316 µM, first compound 0.316 µM
# [13] = second compound 0.316 µM, first compound 1 µM
# [14] = second compound 1 µM, first compound 0.0316 µM
# [15] = second compound 1 µM, first compound 0.1 µM
# [16] = second compound 1 µM, first compound 0.316 µM
# [17] = second compound 1 µM, first compound 1 µM
# 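Also: viability read after 7 days of drug exposure.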
# 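For viability, T/C in this document: 100% = DMSO vehicle control luminescence.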
structure (smiles),measurement,setting,value
Cc1nc(NC(=O)N2CCCC2C(N)=O)sc1-c1ccnc(C(C)(C)C(F)(F)F)c1 (centres undefined) + CCN1CCN(Cc2ccc(Nc3ncc(F)c(-c4cc(F)c5nc(C)n(C(C)C)c5c4)n3)nc2)CC1,IC50,[1],1080 nM
same,IC50,[2],658 nM
same,IC50,[3],387 nM
same,IC50,[4],181 nM
same,IC50,[5],481 nM
same,"viability, T/C","second compound 0.01 µM, first compound 0.0316 µM",80.2%
same,"viability, T/C","second compound 0.01 µM, first compound 0.1 µM",66.6%
same,"viability, T/C","second compound 0.01 µM, first compound 0.316 µM",56%
same,"viability, T/C","second compound 0.01 µM, first compound 1 µM",54.3%
same,"viability, T/C","second compound 0.01 µM, first compound 3.16 µM",43.5%
same,"viability, T/C","second compound 0.01 µM, first compound 10 µM",32.4%
same,"viability, T/C","second compound 0.0316 µM, first compound 0.0316 µM",51.6%
same,"viability, T/C","second compound 0.0316 µM, first compound 0.1 µM",75.1%
same,"viability, T/C","second compound 0.0316 µM, first compound 0.316 µM",57.4%
same,"viability, T/C","second compound 0.0316 µM, first compound 1 µM",44.6%
same,"viability, T/C","second compound 0.0316 µM, first compound 3.16 µM",41.1%
same,"viability, T/C","second compound 0.0316 µM, first compound 10 µM",33.7%
same,"viability, T/C",[6],57.4%
same,"viability, T/C",[7],56.8%
same,"viability, T/C",[8],49.2%
same,"viability, T/C",[9],46%
same,"viability, T/C","second compound 0.1 µM, first compound 3.16 µM",34.6%
same,"viability, T/C","second compound 0.1 µM, first compound 10 µM",27.5%
same,"viability, T/C",[10],55.5%
same,"viability, T/C",[11],48.1%
same,"viability, T/C",[12],53.5%
same,"viability, T/C",[13],41.1%
same,"viability, T/C","second compound 0.316 µM, first compound 3.16 µM",35.5%
same,"viability, T/C","second compound 0.316 µM, first compound 10 µM",29.6%
same,"viability, T/C",[14],49.5%
same,"viability, T/C",[15],63.5%
same,"viability, T/C",[16],55.4%
same,"viability, T/C",[17],40.5%
same,"viability, T/C","second compound 1 µM, first compound 3.16 µM",42.5%
same,"viability, T/C","second compound 1 µM, first compound 10 µM",38.3%
Cn1cnc2c(F)c(Nc3ccc(Br)cc3Cl)c(C(=O)NOCCO)cc21,"viability, T/C",compound 0.00949 µM,54.7% and 48.5%
same,"viability, T/C",compound 0.03 µM,33% and 42.6%
same,"viability, T/C",compound 0.0949 µM,27.1% and 34.2%
same,"viability, T/C",compound 0.3 µM,25.2% and 24.2%
same,"viability, T/C",compound 0.949 µM,18.1% and 21.6%
same,"viability, T/C",compound 3 µM,16.5% and 16%
same,IC50,curve of compound,11.9 nM and < 9.49 nM
C=CC(=O)N1CCN(c2nc(=O)n(-c3c(C)ccnc3C(C)C)c3nc(-c4c(O)cccc4F)c(F)cc23)C(C)C1 (centres undefined),"viability, T/C",compound 0.0316 µM,26.6% and 19.1%
same,"viability, T/C",compound 0.1 µM,18.9% and 20.1%
same,"viability, T/C",compound 0.316 µM,19.7% and 18.1%
same,"viability, T/C",compound 1 µM,18.6% and 17.6%
same,"viability, T/C",compound 3.16 µM,16% and 20.2%
same,"viability, T/C",compound 10 µM,20.3% and 18.5%
same,IC50,curve of compound,< 31.6 nM
Cc1nc(NC(=O)N2CCCC2C(N)=O)sc1-c1ccnc(C(C)(C)C(F)(F)F)c1 (centres undefined),"viability, T/C",compound 0.0316 µM,85.2%
same,"viability, T/C",compound 0.1 µM,79.3% and 90.2%
same,"viability, T/C",compound 0.316 µM,59.3% and 74%
same,"viability, T/C",compound 1 µM,44.5% and 52.8%
same,"viability, T/C",compound 3.16 µM,66.8% and 49.1%
same,"viability, T/C",compound 10 µM,50.2% and 46.2%
same,IC50,curve of compound,> 10000 nM and 1800 nM
COc1c(OCCCN2CCOCC2)ccc2c3n(c(=NC(=O)c4cnc(N)nc4)nc12)CCN3 + CC(C)NCC(C(=O)N1CCN(c2ncnc3c2C(C)CC3O)CC1)c1ccc(Cl)cc1,IC50,[3],53.7 nM
same,IC50,[4],43.4 nM
same,IC50,[5],11.8 nM
same,IC50,"curve of first compound, second compound 3.16 µM",22.4 nM
same,IC50,"curve of first compound, second compound 10 µM",6.24 nM
same,"viability, T/C","second compound 0.1 µM, first compound 0.00316 µM",99.6%
same,"viability, T/C","second compound 0.1 µM, first compound 0.01 µM",85.8%
same,"viability, T/C",[6],54.7%
same,"viability, T/C",[7],44%
same,"viability, T/C",[8],32.2%
same,"viability, T/C",[9],29.4%
same,"viability, T/C","second compound 0.316 µM, first compound 0.00316 µM",82.8%
same,"viability, T/C","second compound 0.316 µM, first compound 0.01 µM",75.8%
same,"viability, T/C",[10],47.4%
same,"viability, T/C",[11],42.6%
same,"viability, T/C",[12],28.5%
same,"viability, T/C",[13],19.9%
same,"viability, T/C","second compound 1 µM, first compound 0.00316 µM",72.7%
same,"viability, T/C","second compound 1 µM, first compound 0.01 µM",49.8%
same,"viability, T/C",[14],41%
same,"viability, T/C",[15],30%
same,"viability, T/C",[16],30.5%
same,"viability, T/C",[17],22.6%
same,"viability, T/C","second compound 3.16 µM, first compound 0.00316 µM",71.4%
same,"viability, T/C","second compound 3.16 µM, first compound 0.01 µM",58.5%
same,"viability, T/C","second compound 3.16 µM, first compound 0.0316 µM",46.5%
same,"viability, T/C","second compound 3.16 µM, first compound 0.1 µM",34.5%
same,"viability, T/C","second compound 3.16 µM, first compound 0.316 µM",26.7%
same,"viability, T/C","second compound 3.16 µM, first compound 1 µM",18.4%
same,"viability, T/C","second compound 10 µM, first compound 0.00316 µM",57.3%
same,"viability, T/C","second compound 10 µM, first compound 0.01 µM",42.2%
same,"viability, T/C","second compound 10 µM, first compound 0.0316 µM",39%
same,"viability, T/C","second compound 10 µM, first compound 0.1 µM",30.9%
same,"viability, T/C","second compound 10 µM, first compound 0.316 µM",18.9%
same,"viability, T/C","second compound 10 µM, first compound 1 µM",18.8%
CC(C)NCC(C(=O)N1CCN(c2ncnc3c2C(C)CC3O)CC1)c1ccc(Cl)cc1 (centres undefined),"viability, T/C",compound 0.316 µM,71.7% [middle of 13 runs]
same,"viability, T/C",compound 10 µM,71.6% [middle of 13 runs]
same,IC50,"compound alone, run of 06/01/2021",> 10000 nM
CC(=O)c1c(C)c2cnc(Nc3ccc(N4CCNCC4)cn3)nc2n(C2CCCC2)c1=O + CCN1CCN(Cc2ccc(Nc3ncc(F)c(-c4cc(F)c5nc(C)n(C(C)C)c5c4)n3)nc2)CC1,IC50,[1],> 300 nM
same,IC50,[2],> 300 nM
same,IC50,[3],> 300 nM
same,IC50,[4],> 300 nM
same,IC50,[5],> 300 nM
same,"viability, T/C","second compound 0.01 µM, first compound 0.000949 µM",74.8%
same,"viability, T/C","second compound 0.01 µM, first compound 0.003 µM",93.4%
same,"viability, T/C","second compound 0.01 µM, first compound 0.00949 µM",87.8%
same,"viability, T/C","second compound 0.01 µM, first compound 0.03 µM",62.5%
same,"viability, T/C","second compound 0.01 µM, first compound 0.0949 µM",82.8%
same,"viability, T/C","second compound 0.01 µM, first compound 0.3 µM",69.2%
same,"viability, T/C","second compound 0.0316 µM, first compound 0.000949 µM",83%
same,"viability, T/C","second compound 0.0316 µM, first compound 0.003 µM",65.1%
same,"viability, T/C","second compound 0.0316 µM, first compound 0.00949 µM",94.1%
same,"viability, T/C","second compound 0.0316 µM, first compound 0.03 µM",75.2%
same,"viability, T/C","second compound 0.0316 µM, first compound 0.0949 µM",55.4%
same,"viability, T/C","second compound 0.0316 µM, first compound 0.3 µM",57.4%
same,"viability, T/C","second compound 0.1 µM, first compound 0.000949 µM",84.4%
same,"viability, T/C","second compound 0.1 µM, first compound 0.003 µM",71.2%
same,"viability, T/C","second compound 0.1 µM, first compound 0.00949 µM",62.6%
same,"viability, T/C","second compound 0.1 µM, first compound 0.03 µM",80.2%
same,"viability, T/C","second compound 0.1 µM, first compound 0.0949 µM",60.3%
same,"viability, T/C","second compound 0.1 µM, first compound 0.3 µM",51.2%
same,"viability, T/C","second compound 0.316 µM, first compound 0.000949 µM",60.7%
same,"viability, T/C","second compound 0.316 µM, first compound 0.003 µM",51.7%
same,"viability, T/C","second compound 0.316 µM, first compound 0.00949 µM",67.1%
same,"viability, T/C","second compound 0.316 µM, first compound 0.03 µM",49.4%
same,"viability, T/C","second compound 0.316 µM, first compound 0.0949 µM",56.8%
same,"viability, T/C","second compound 0.316 µM, first compound 0.3 µM",50.7%
same,"viability, T/C","second compound 1 µM, first compound 0.000949 µM",53.4%
same,"viability, T/C","second compound 1 µM, first compound 0.003 µM",76.6%
same,"viability, T/C","second compound 1 µM, first compound 0.00949 µM",69%
same,"viability, T/C","second compound 1 µM, first compound 0.03 µM",65.5%
same,"viability, T/C","second compound 1 µM, first compound 0.0949 µM",63.7%
same,"viability, T/C","second compound 1 µM, first compound 0.3 µM",54.2%
